# Data as given in patent US5618812A, “Benzodiazepine derivatives” (Merck Sharp & Dohme, Ltd., priority 1992, dated 1997).
# Counter-ions that a name gives are not always drawn. Like-named read-outs stand apart in the source and are kept apart here.
# Tests used:
# CCK-A = target: T1, CCK-A (Rattus norvegicus, UniProt P30551); test: biochemical; format: binding
# T1 sequence (P30551 1-444): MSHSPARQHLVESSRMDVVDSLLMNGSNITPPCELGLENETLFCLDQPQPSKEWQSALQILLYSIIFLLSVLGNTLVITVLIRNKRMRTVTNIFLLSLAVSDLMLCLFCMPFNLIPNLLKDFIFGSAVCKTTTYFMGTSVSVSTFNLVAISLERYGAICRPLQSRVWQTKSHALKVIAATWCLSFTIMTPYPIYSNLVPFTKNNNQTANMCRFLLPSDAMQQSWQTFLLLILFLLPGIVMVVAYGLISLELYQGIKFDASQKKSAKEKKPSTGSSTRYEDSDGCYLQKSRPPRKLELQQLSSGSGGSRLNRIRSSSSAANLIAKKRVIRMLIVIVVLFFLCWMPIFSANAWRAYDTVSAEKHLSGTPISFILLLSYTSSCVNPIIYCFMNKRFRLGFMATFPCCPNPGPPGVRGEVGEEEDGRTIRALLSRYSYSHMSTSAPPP
# Experimental: (§1) The CCK-A and CCK-B antagonising activity of the compounds described herein was evaluated using the assays described in published European patent application no. 0514133. The method essentially involves determining the concentration of the test compound required to displace 50% of the specific ^125 I-CCK from rat pancreas (CCK-A) or guinea pig brain (CCK-B).
# CCK-B = target: T2, CCK-B (Cavia porcellus, UniProt H0VZC5); test: displacement of specific 125I-CCK from guinea pig brain (CCK-B receptor binding)
# T2 construct: guinea pig brain (CCK-B); from tissue; host or cells: guinea pig brain
# T2 sequence (H0VZC5 1-426): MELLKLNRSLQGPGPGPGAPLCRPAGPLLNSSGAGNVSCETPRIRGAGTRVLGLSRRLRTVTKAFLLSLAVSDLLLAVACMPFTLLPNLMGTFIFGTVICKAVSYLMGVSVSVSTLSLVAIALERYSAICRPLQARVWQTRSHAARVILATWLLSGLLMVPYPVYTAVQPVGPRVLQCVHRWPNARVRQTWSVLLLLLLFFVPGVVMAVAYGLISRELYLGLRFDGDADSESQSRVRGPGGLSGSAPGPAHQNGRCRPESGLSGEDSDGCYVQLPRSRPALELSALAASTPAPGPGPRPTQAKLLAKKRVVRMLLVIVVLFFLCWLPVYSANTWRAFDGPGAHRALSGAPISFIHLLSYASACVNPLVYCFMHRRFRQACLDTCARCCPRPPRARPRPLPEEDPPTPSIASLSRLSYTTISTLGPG
# Experimental: as §1, with “(CCK-B). The data in Table 1 were obtained for compounds of the Examples.” for “(CCK-B).”
# [1] = read-out: CCK RECEPTOR BINDING RESULTS IC50 125I-CCK Pancreas
# [2] = read-out: CCK RECEPTOR BINDING RESULTS IC50 125I-CCK Brain
# [3] = rat pancreas (CCK-A), 125I-CCK, read-out: CCK RECEPTOR BINDING RESULTS IC50 125I-CCK Pancreas
# [4] = CCK RECEPTOR BINDING RESULTS IC50 125I-CCK Pancreas, rat pancreas (CCK-A), 125I-CCK
# [5] = CCK RECEPTOR BINDING RESULTS IC50 125I-CCK Brain
Structure (SMILES),IC50 (CCK-A; [1]) [µM],IC50 (CCK-B; [2]) [µM],IC50 (CCK-A; [3]) [µM],IC50 (CCK-A; [4]) [µM],IC50 (CCK-B; [5]) [µM]
"Cc1cccc(NC(=O)NC2N=C(N3C[C@H]4CCCC[C@H]4C3)c3ccccc3N(C)C2=O)c1 (single isomer, unassigned; (+)) [Example 59, (+)-N-[2,3-Dihydro-1-methyl-5-(cis-octahydroisoindol-2-yl)-2-oxo-1H-1,4-benzodiazepin-3-yl]N'[-3-methylphenyl]urea hydrochloride]",0.0097,0.144,–,–,–
"CCCN1C(=O)C(NC(=O)Nc2cccc(C)c2)N=C(N(C)C2CCCCC2)c2ccccc21 (single isomer, unassigned; (+)) [Example 62, (+) 5-(N-Cyclohexyl-N-methylamino)-2,3-dihydro-2-oxo-1-propyl-1H-1,4-benzodiazepin-3-y1-N'-[3-methylphenyl]urea]",–,0.0352,0.114,–,–
"Cc1cccc(NC(=O)NC2N=C(N(C)C3CCCCC3)c3ccccc3N(C)C2=O)c1 (single isomer, unassigned; (+)) [Example 65, (+)5-(N-Cyclohexyl-N-methylamino)-2,3-dihydro-2-oxo-1-methyl-1H-1,4-benzodiazepin-3-yl-N'[3-methylphenyl]urea. Hydrochloride]",–,0.0137,0.138,–,–
"Cc1cccc(NC(=O)NC2N=C(N(C)C3CCCCCC3)c3ccccc3N(C)C2=O)c1 (single isomer, unassigned; (+)) [Example 68, (+)-5-(N-Cycloheptyl-N-methylamino)-2,3-dihydro-1-methyl-2-oxo-1H-1,4-benzodiazepin-3-yl-N'-[3-methylphenyl]urea. Hydrochloride]",–,0.0266,0.0534,–,–
"CN1C(=O)C(NC(=O)c2cc3ccccc3[nH]2)N=C(N2CC3CCC(CC3)C2)c2ccccc21 (single isomer, unassigned; (+)) [Example 89, (+)-N-(5-(3-Azabicyclo[3,2,2]nonan-3-yl)-2,3-ihydro-1-methyl-2-oxo-1H-1,4-benzodiazepin-3-yl)-1H-indole-2-carboxamide dihydrochloride]",–,0.653,0.00026,–,–
"CC1CCN(C2=NC(NC(=O)Nc3ccc4c(c3)CCC4)C(=O)N(C)c3ccccc32)CC1 (single isomer, unassigned; (-)) [Example 12, (-)-N-[2,3,Dihydro-1-methyl-5-(4-methylpiperidin-1-yl)-2-oxo-1H-1,4-benzodiazepin-3-yl]N'-[indan-5-yl]urea hydrochloride]",–,0.00028,2.18,–,–
"Cc1cccc(NC(=O)NC2N=C(N3CCCC(C)(C)C3)c3ccccc3N(C)C2=O)c1 (single isomer, unassigned; (-)) [Example 26, (-)-N-[2,3-dihydro-(3,3-dimethylpiperidin-1-yl)-1-methyl-2-oxo-1H-1,4-benzodiazepin-3-yl]N'-[3-methylphenyl]urea]",–,0.00027,> 3,–,–
"CN1C(=O)C(NC(=O)Nc2cccc(F)c2)N=C(N2CC3CCC(CC3)C2)c2ccccc21 (single isomer, unassigned; (-)) [Example 36, (-)-N-[5-(3-Azabicyclo[3,2,2]nonan-3-yl)-2,3-dihydro-1-methyl-2-oxo-1H-1,4-benzodiazepin-3-yl]-N'-[3-fluorophenyl]urea Hydrochloride]",–,–,–,1.4,0.00032
"Cc1cccc(NC(=O)NC2N=C(N3CC4CCC(C4)C3)c3ccccc3N(C)C2=O)c1 (single isomer, unassigned; (-)) [Example 39, (-)-N-[5-(3-Azabicyclo[3,2,1]octan-3-yl)-2,3-dihydro-1-methyl-2-oxo-1H-1,4-benzodiazepin-3-yl]-N'-[3-methylphenyl]urea Hydrochloride]",4.01,0.00017,–,–,–
"CN1C(=O)C(NC(=O)Nc2ccc3c(c2)CCC3)N=C(N2CC3CCC(CC3)C2)c2ccccc21 (single isomer, unassigned; (-)) [Example 41, (-)-N-[5-(3-Azabicyclo[3,2,2]nonan-3-yl)-2,3-dihydro-1-methyl-2-oxo-1H-1,4-benzodiazepin-3-yl]-N'-[5-indanyl]urea]",–,–,> 3,–,0.00037
"Cc1ccc(NC(=O)NC2N=C(N3CC4CCC(CC4)C3)c3ccccc3N(C)C2=O)cc1F (single isomer, unassigned; (-)) [Example 45, (-)-N-[5-(3-Azabicyclo[3,2,2]nonan-3-yl)-2,3-dihydro-1-methyl-2-oxo-1H-1,4-benzodiazepin-3-yl]-N'-[3-fluoro-4-methylphenyl]urea Hydrochloride]",–,–,–,> 3,0.00042
"CN1C(=O)C(NC(=O)Nc2cccc(I)c2)N=C(N2CC3CCC(CC3)C2)c2ccccc21 (single isomer, unassigned; (-)) [Example 48, (-)-N-[5-(3-Azabicyclo[3,2,2]nonan-3-yl)-2,3-dihydro-1-methyl-2-oxo-1H-1,4-benzodiazepin-3-yl]-N'-[3-iodophenyl]urea]",–,–,2.42,–,0.00111
"Cc1cc(NC(=O)NC2N=C(N3CC4CCC(CC4)C3)c3ccccc3N(C)C2=O)ccc1F (single isomer, unassigned; (-)) [Example 53, (-)-N-[5-(3-Azabicyclo[3,2,2]nonan-3-yl)-2,3-dihydro-1-methyl-2-oxo-1H-1,4-benzodiazepin-3-yl]-N'-[4-fluoro-3-methylphenyl]urea Hydrochloride]",–,–,–,3.76,0.00018
"CN1C(=O)C(NC(=O)Nc2cccc(C(F)(F)F)c2)N=C(N2CC3CCC(CC3)C2)c2ccccc21 (single isomer, unassigned; (-)) [Example 55, (-)-N-[5-(3-Azabicyclo[3,2,2]nonan-3-yl)-2,3-dihydro-1-methyl]-2-oxo-1H-1,4-benzodiazepin-3-yl]-N'-[3-trifluoromethylphenyl]urea Hydrochloride]",–,–,> 3,–,0.00073
"Cc1cccc(NC(=O)NC2N=C(N3C[C@H]4CCCC[C@H]4C3)c3ccccc3N(C)C2=O)c1 (single isomer, unassigned; (-)) [Example 58, (-)-N-[2,3-Dihydro-1-methyl-5-(cis-octahydroisoindol-2-yl)-2-oxo-1H-1,4-benzodiazepin-3-yl]-N'-[3-methylphenyl]urea hydrochloride]",2.26,0.002,–,–,–
"CCCN1C(=O)C(NC(=O)Nc2cccc(C)c2)N=C(N(C)C2CCCCC2)c2ccccc21 (single isomer, unassigned; (-)) [Example 61, (-)-5-(N-Cyclohexyl-N-methylamino)-2,3-dihydro-2-oxo-1-propyl-1H-1,4-benzodiazepin-3-yl-N'[3-methylphenyl]urea]",–,0.00022,0.704,–,–
"Cc1cccc(NC(=O)NC2N=C(N(C)C3CCCCC3)c3ccccc3N(C)C2=O)c1 (single isomer, unassigned; (-)) [Example 64, (-)5-(N-Cyclohexyl-N-methylamine)-2,3-dihydro-2-oxo-1-methyl-1H-1,4-benzodiazepin-3-yl-N'-[3-methylphenyl]urea. Hydrochloride]",–,0.00022,2.07,–,–
"Cc1cccc(NC(=O)NC2N=C(N(C)C3CCCCCC3)c3ccccc3N(C)C2=O)c1 (single isomer, unassigned; (-)) [Example 67, (-)-5-(N-Cycloheptyl-N-methylamino)-2,3-dihydro-1-methyl-2-oxo-1H-1,4-benzodiazepin-3-yl-N'-[3-methylphenyl]urea, Hydrochloride]",–,0.0001,2,–,–
